According to patent US9597391B2, “Cyclic-dinucleotides and its conjugates as adjuvants and their uses in pharmaceutical compositions” (HELMHOLTZ_ZENTRUM FUER INFEKTIONSFORSCHUNG GMBH, priority 2005, dated 2017):
“Also recorded” adds a separate entry of the source.

Legend:
[1] = system: spleen cells; assay: ELISPOT of cytokine producing spleen cells from vaccinated mice; type: in vivo; settings: for expression of various cytokines: administered as an adjuvant (FIG. 10); for splenic IL-2 producing cells / splenic IL-4 producing cells: i.n. and s.c. route, restimulation with β-Gal protein; for antigen-specific IFNγ secreting cells / antigen-specific IL-2 secreting cells / antigen-specific IL-4 secreting cells: mice receiving adjuvant; for number of splenic IFNγ producing cells, parenteral vaccination: s.c., restimulation with MHC class I-restricted β-Gal peptide (CD8 epitope) (FIG. 10)
Protocol: Experimental protocol: Spleens from vaccinated mice were removed and pooled for analysis of cellular immune responses. The protocol for vaccination was identical to the protocol described in Example 2. Cells were grown in RPMI 1640 supplemented with 10% fetal calf serum, 100 U/ml of penicillin, 50 μg/ml of streptomycin, 5×10^−5 M 2-mercaptoethanol and 1 mM L-glutamine (GIBCO BRL, Karlsruhe, Germany) and maintained at 37° C. in a humidified 5% CO2 atmosphere. […]
For coating ELISPOT plates, said plates were incubated with 100 μl/well of purified capture antibody (10 μg/ml in coating buffer) at 4° C. overnight. After 6× washing steps, the plates were blocked with 200 μl/well of complete RPMI-1640 at room temperature for 1 hour. The activated cells were seeded at 100 μl per well and incubate at 37° C., in a 5% CO2 humidified incubator for 24 hours or 48h hours. After 5× washing steps with washing buffer and 1× step with distilled water, 100 μl/well of the biotinylated detection antibody with a concentration of 1 μg/ml in Assay Diluent was added and incubated at room temperature for 2 hrs. After further washing steps 100 μl/well of the AV-HRP at 1/1000 dilution in Assay Diluent was added and incubated at room temperature for 30 minutes. After further washing steps 100 μl/well of AEC Substrate Solution was added and developed at room temperature for 10-60 minutes until visible spots appeared. After washing steps with (3×) with 200 μl/well distilled water, the plates were air-dried and analyzed by counting the spots by an ELISPOT reader. Each concentration was tested in triplicates.

[2] = system: spleen cells; assay: [3H]thymidine proliferation of spleen cells from vaccinated mice restimulated in vitro with β-gal; type: in vivo; settings: for T cell proliferation after i.n. and s.c. administration: versus β-gal alone; for proliferation of spleen cells, i.n. immunization / proliferation of spleen cells, s.c. immunization: day 38, in vitro restimulation with β-gal; for proliferation of spleen cells, i.n. immunization: low amounts of antigen (FIG. 6); for proliferation of spleen cells, s.c. immunization: [3H]thymidine (FIG. 6)
Protocol: Experimental protocol: Spleens were removed and pooled for analysis of cellular immune responses. Cells were grown in RPMI 1640 supplemented with 10% fetal calf serum, 100 U/ml of penicillin, 50 μg/ml of streptomycin, 5×10^−5 M 2-mercaptoethanol and 1 mM L-glutamine (GIBCO BRL, Karlsruhe, Germany) and maintained at 37° C. in a humidified 5% CO2 atmosphere. Spleen cell suspensions were adjusted to 5×10^6 cells/ml in complete medium, cells were seeded with 100 μl per well in a flat-bottomed 96-well microtiter plate (Nunc) and plates were incubated for 4 days in the presence of different concentrations of soluble β-gal. That is, T cell mediated immune responses were investigated at day 38 by measuring the proliferation after in vitro restimulation with β-Gal of cells which have been recovered from spleens before. Said spleen cells were obtained from vaccinated mice—said mice where immunized as described in Example 2—and incubated in the presence of different concentrations of the soluble β-Gal antigen. Each concentration was tested in quadruplicates. During the final 18 h of culture, 1 μCi of [3H]thymidine (Amersham International, Freiburg, Germany) was added to each well. Cells were then harvested on paper filters (Filtermat A; Wallac, Freiburg, Germany) by using a cell harvester (Inotech, Wohlen, Switzerland), and the amount of incorporated [3H]thymidine into the DNA of proliferating cells was determined by a β-scintillation counter (Wallac 1450, Micro-Trilux). The results are expressed as the arithmetic mean of [^3H]thymidine uptake in cpm.
Thirty eight days following vaccination, spleens cells were purified, re-stimulated in vitro in the presence of various amounts of β-galactosidase and their proliferative capacity was estimated by measuring the incorporation of [3H]thymidine into their DNA using a β-scintillation counter.

[3] = system: re-stimulated spleen cells; assay: Cytokines in supernatants of in vitro re-stimulated spleen cells by cytometric bead array; type: in vivo, mice; settings: for IL-6 secretion of re-stimulated spleen cells: versus β-Gal without adjuvant (FIGS. 8 and 9); for IFNγ secretion of re-stimulated spleen cells: versus β-Gal without adjuvant, c-diGMP data from i.n. immunized mice (FIG. 7, FIG. 9)
Protocol: Experimental protocol: Spleens from mucosal (i.n.) or parenteral (s.c.) vaccinated mice were removed and pooled for analysis of cellular immune responses. The protocol for vaccination was identical to the protocol described in Example 2. Cells were grown in RPMI 1640 supplemented with 10% fetal calf serum, 100 U/ml of penicillin, 50 μg/ml of streptomycin, 5×10^−5 M 2-mercaptoethanol and 1 mM L-glutamine (GIBCO BRL, Karlsruhe, Germany) and maintained at 37° C. in a humidified 5% CO2 atmosphere. Spleen cell suspensions were adjusted to 5×10^6 cells/ml in complete medium, cells were seeded with 100 μl per well in a flat-bottomed 96-well microtiter plate (Nunc) and plates were incubated for 4 days in the presence of different concentrations of soluble β-gal.
To characterize the type of Th response stimulated following immunization, the content of IFNγ, IL-6, IL-10, IL-12 (for c-diAMP only), MCP-1, and TNFα was measured in supernatants from in vitro re-stimulated spleen cells (FIG. 7 and 8 for c-diGMP and FIG. 9 for c-diAMP) by the Cytometric Bead Array. Culture supernatants from proliferating cells were collected on days 2 and 4, and stored at −70° C. Determination of IFNγ, TNFα, IL-6, IL-10, IL-12, and MCP-1 was performed by cytometric bead array (CBA) analysis using the commercial kit from BectonDickinson, according to the manufacturer's instructions or with commercially available ELISA systems. For CBA analysis, a standard curve was generated for each cytokine by using the corresponding recombinant murine cytokines (Pharmingen). Probes were incubated at room temperature for additional 2h. The probes were analyzed subsequently by flow cytometry as described in the protocol of BD.

SMILES | expression of various cytokines [1] | splenic IL-2 producing cells [1] | splenic IL-4 producing cells [1] | antigen-specific IFNγ secreting cells [1] | antigen-specific IL-2 secreting cells [1] | antigen-specific IL-4 secreting cells [1] | number of splenic IFNγ producing cells, parenteral vaccination [1] | T cell proliferation after i.n. and s.c. administration [2] | proliferation of spleen cells, i.n. immunization [2] | proliferation of spleen cells, s.c. immunization [2] | IL-6 secretion of re-stimulated spleen cells [3] | IFNγ secretion of re-stimulated spleen cells [3] | Th1 like cytokines in antigen restimulated spleen cells ([3]; β-gal/c-diGMP versus β-gal alone (FIG. 8B)) | type of Th response induced ([3]; mice immunized with β-gal plus adjuvant) | TNFα secretion of re-stimulated spleen cells ([3]; versus β-Gal without adjuvant (FIG. 9))
Nc1nc2c(ncn2[C@@H]2O[C@@H]3COP(=O)(O)O[C@H]4[C@@H](O)[C@H](n5cnc6c(=O)[nH]c(N)nc65)O[C@@H]4COP(=O)(O)O[C@H]3[C@H]2O)c(=O)[nH]1 [c-diGMP, cyclic bis(3′-5′)diguanylic acid] | increased expression | strong expression | strong expression | increased in number | increased in number | increased in number | increment | statistically significant increment | efficient proliferative response | further increase in proliferation | same results | strong expression; also recorded: enhanced secretion | high expression | – | –
Nc1ncnc2c1ncn2[C@@H]1O[C@@H]2COP(=O)(O)O[C@H]3[C@@H](O)[C@H](n4cnc5c(N)ncnc54)O[C@@H]3COP(=O)(O)O[C@H]2[C@H]1O [c-diAMP, cyclic bis(3′-5′)diadenylic acid] | increased expression | strong expression | strong expression | increased in number | increased in number | increased in number | increment | statistically significant increment | efficient proliferative response | further increase in proliferation | same results | enhanced secretion | – | balanced Th1/Th2 response | enhanced secretion
